The target of one experiment is T1, GSPT2 (Homo sapiens, UniProt Q8IYD1+Q96SW2).
T1 construct: endogenous in cells; host or cells: RKO WT or RKO CRBN KO
Put plainly: Western blot analysis of GSPT2 degradation in HEK293T cells. It is filed as cell-based. The note with it: 0 to 10 μM, 16 h. On the procedure: Figure 3 FL2-14 is a selective GSPT2 molecular glue degrader. (A) Structure of FL2-14 comprising fluorosulfate scaffold FL2 (black) and tail group modification 14 (blue). (B) DMSO-normalized quantitative proteomics after 16 h of treatment with FL2-14 (10 μM) in RKO WT (n = 2). […] (C) Structural alignment of AlphaFold models of GSPT1 (AF-P15170-F1-model_v4 in gray) and GSPT2 (AF-Q8IYD1-F1-model_v4 in blue). (D) Validation of GSPT2 degradation by FL2-14. […] (E) Dose–response of FL2-14 in RKO and HEK293T cells. Cells were treated with the FL2-14 (0 to 10 μM) for 16 h. (F) Degradation of GSPT2^WT or GSPT2^G566N. […]
spectra were searched against the human proteome (Canonical, reviewed, 20 304 sequences) and appended known contaminants and streptavidin, with a maximum of two allowable miscleavage sites. The search was performed with full tryptic digestion. […] Peptide spectrum matches (PSMs) with precursor isolation interference values of > 70, average TMTpro reporter ion S/N < 10 and SPS Mass Matches < 65 % were excluded from quantification. Both unique and razor peptides were used for TMT quantification. […] Protein ratios are directly calculated from the grouped protein abundances using an ANOVA hypothesis test. Adjusted p‐values are calculated using the Benjamini‐Hochberg method. […]

For a further experiment, the target named is T2, IKZF1 (Homo sapiens, UniProt Q13422).
T2 construct: endogenous in cells; host or cells: MV4.11
Put plainly: Western blot analysis of IKZF1 degradation in MV4.11 cells. Format: cell-based. The note with it: 16 h. On the technique in general: A western blot detects proteins with antibodies after separation by electrophoresis.

The next experiment concerns the target T3, recombinant DDB1-CRBN (Homo sapiens, UniProt Q96SW2).
T3 construct: His; made in house; host or cells: High Five insect cells (baculovirus made and propagated in SF9 cells)
Put plainly: Fluorescence polarization-based competition assay for CRBN binding. The note with it: 200 nM CRBN-DDB1, 20 nM pomalidomide-fluorescein tracer 16, triplicates; read-out: FP_CRBN_binding: CRBN binding affinity, EC50. On the technique in general: In fluorescence polarisation assays a small probe gives low polarisation when free and higher when bound to something large.

We go through one compound from publication PMC10764104, “Discovery of Molecular Glue Degraders via Isogenic Morphological Profiling” (ACS Chemical Biology, 2023).

The EC50 is the midpoint of the concentration-response curve. For the compound `CN(Cc1ncc(C2CC2)o1)S(=O)(=O)Oc1ccc(Nc2ccc3c(c2)C(=O)N(C2CCC(=O)NC2=O)C3=O)cc1` (stereo not drawn) [FL2-14], the “GSPT2 degradation in HEK293T cells” value at GSPT2 is “could also be observed in HEK293T cells”. Besides, the IKZF1 degradation result at IKZF1 was “did not induce degradation of IKZF1”. Also, at recombinant DDB1-CRBN, the 50% effective concentration (EC50) was determined as 991 nM.
